Experimental data published in patent US11597708B2, “Inhibitors of heat shock factors and uses thereof” (HSF Pharmaceuticals SA, priority 2016, dated 2023).

Columns and labels:
HSE DNA-binding activity = molecular target: T1, HSE DNA-binding activity (Homo sapiens, UniProt Q00613); test: EMSA using extracts of heat-treated HeLa cells, in the presence of IHSF; type: biochemical; conditions: extracts of HeLa cells heat-treated at 43° C. for 30 min; concentrations as high as about 0.5 mM
T1 construct: functionally linked to an hsp70b promoter and therefore controlled by endogenous HSF1; endogenous in cells; host or cells: HeLa cells / HeLa-derived cell line Z74
T1 sequence (Q00613 1-529): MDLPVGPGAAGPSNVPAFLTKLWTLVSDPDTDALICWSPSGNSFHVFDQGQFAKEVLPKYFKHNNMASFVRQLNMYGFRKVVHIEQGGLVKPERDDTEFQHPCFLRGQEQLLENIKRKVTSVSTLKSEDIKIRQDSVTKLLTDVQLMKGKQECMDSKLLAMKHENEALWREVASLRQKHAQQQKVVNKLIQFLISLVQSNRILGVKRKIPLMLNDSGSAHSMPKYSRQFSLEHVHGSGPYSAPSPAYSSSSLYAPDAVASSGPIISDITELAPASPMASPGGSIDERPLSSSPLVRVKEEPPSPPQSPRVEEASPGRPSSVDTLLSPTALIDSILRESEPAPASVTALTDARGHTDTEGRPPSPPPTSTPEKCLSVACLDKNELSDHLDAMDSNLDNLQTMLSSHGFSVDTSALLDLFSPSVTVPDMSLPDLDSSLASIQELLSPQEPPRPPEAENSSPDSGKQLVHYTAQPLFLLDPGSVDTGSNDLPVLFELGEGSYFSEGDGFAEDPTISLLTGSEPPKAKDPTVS
Protocol: Electrophoretic mobility shift assays (EMSA) using a radiolabeled HSE DNA probe were carried out to assess HSF1 DNA-binding activity in extracts of heat-treated (43° C./30 min) HeLa cells that had been exposed to different concentrations of compounds 058 or 115 (FIG. 3A, top panels). […] HSF1 degradation correlated well with the observed decrease in DNA-binding activity. Therefore, HSF1 degradation provides a sufficient explanation for the reduced HSE DNA-binding activity in cells treated with IHSF 058. […] EMSA were also carried out using extracts of HeLa cells that had been heat-treated at 43° C. for 30 min.

MM.1S = test: Alamar Blue viability assay; type: cell-based, human
Protocol: FIG. 5. (A) Viability of HeLa cell cultures mock-exposed (−) or exposed to the indicated concentrations of compounds 001, 058 or 115. (B) Viability of MM.1S cells mock-exposed (−) or exposed to the indicated concentrations of compound 115. Viability was assayed after 96 hours of exposure using an Alamar Blue assay.
(§1) Cultures of HeLa cells were exposed for 96 hours to different concentrations of IHSF 001, 058 and 115, and viability was assessed using an Alamar Blue assay. It is noted that this standard assay examines attached cells only. This subject will be discussed in more detail below. […] The relative cytotoxicity of the compounds appears to parallel their respective activities as inhibitors of HSF1 function (inhibition of RLuc expression in Z74 cells). We next examined the viability of different human cancer cell lines subsequent to a 96-hour exposure to compound 115 (Table 3). HSF1 was reported as being required for optimal p21 expression and for p53-mediated cell cycle arrest in response to genotoxins. Logan, I. R. et al. (2009) Nucleic Acids Res. 37: 2962-2971. […] Cell lines of different p53 status were included in the experiments in order to find out whether sensitivity to IHSF 115 was related to p53 status. […] No effect of p53 status could be discovered. It is noted that a number of additional HSF inhibitors of the present disclosure were tested and found to effectively reduce the viability of human cancer cells.

NCI-H2228 = test: Alamar Blue viability assay; type: cell-based; conditions: Homo sapiens, Lung, P53 Wt, 96-hour exposure
Protocol: as §1

MDA-MB-231 = test: Alamar Blue viability assay; type: cell-based; conditions: Homo sapiens, Breast, P53 Mut, 96-hour exposure
Protocol: as §1

U266B1 = test: Alamar Blue viability assay; type: cell-based; conditions: Homo sapiens, Multiple myeloma, P53 Mut, 96-hour exposure
Protocol: as §1

A549 = test: Alamar Blue viability assay; type: cell-based; conditions: Homo sapiens, Lung, P53 Wt, 96-hour exposure
Protocol: as §1

OV56 = test: Alamar Blue viability assay; type: cell-based; conditions: Homo sapiens, Ovarian carcinoma, P53 Mut, 96-hour exposure
Protocol: as §1

U-2 OS = test: Alamar Blue viability assay; type: cell-based; conditions: Homo sapiens, U2OS, Osteosarcoma, P53 WT, 96-hour exposure
Protocol: as §1

HeLa cells = test: Trypan Blue staining, live and necrotic cells; type: cell-based, human
Protocol: FIG. 6. (A) HeLa cell cultures were mock-exposed (−) or exposed to the indicated concentrations of compound 115 for 24 (left panel) or 96 (right panel) hours. Cell viability of total cultures, floating cells and attached cells was assayed using an Alamar Blue assay. (B) HeLa cell cultures were mock-exposed (−) or exposed to the indicated concentrations of compound 115 for 15-96 hours. Trypan Blue dye exclusion was employed to determine numbers of live cells (left panel) and relative levels of necrotic cells (right panel). (C) HeLa cell cultures were mock-exposed (−) or exposed to the indicated concentrations of compound 115 for 6 and 24 h. Shown are relative levels of early apoptotic cells (annexin-positive, 7 aminoactinomycin D-negative). (D) Flow cytometric analysis of DNA of HeLa cell cultures mock-exposed (−) or exposed to the indicated concentrations of compound 115 for 6, 15 and 24 hours. Relative levels of apoptotic cells are indicated.
Further studies were aimed at finding out whether IHSF-exposed cancer cells were only growth-arrested or were actually killed and, if they were killed, by what mechanism. […] The viability signal (in whole cultures and, more dramatically, when only attached cells were analyzed) decreased as a function of IHSF concentration. […] Stained (necrotic) and unstained (live) cells were counted (FIG. 6B). […]

SMILES | HSE DNA-binding activity (EMSA) in the presence of IHSF (HSE DNA-binding activity) | concentration at which complete loss of viability of MM.1S cells occurred (MM.1S; 96 hours exposure, Alamar Blue) | EC50 (MM.1S; Homo sapiens, MM1.S, MM.1S, Multiple myeloma, P53 Wt, 96-hour exposure) | concentration at which complete loss of viability of MM.1S cells occurred, in some experiments (MM.1S; in some experiments already) | EC50 (NCI-H2228) | EC50 (MDA-MB-231) | EC50 (U266B1) | EC50 (A549) | EC50 (OV56) | EC50 (U-2 OS) | necrotic HeLa cells (Trypan Blue) (HeLa cells; 15-hour exposure to 3.125 μM) | numbers of live and necrotic HeLa cells (Trypan Blue) (HeLa cells; exposure for 15, 24 and 96 hours)
CCOC(=O)/C=C/C(=O)Nc1nccs1 [IHSF 001, (E)-ethyl 4-oxo-4-(thiazol-2-ylamino)but-2-enoate] | no reduction | – | – | – | – | – | – | – | – | – | – | –
CN(C(=O)/C=C/C1=NCCCO1)c1ncc(-c2cccnc2)s1 [IHSF 115, (E)-3-(5,6-Dihydro-4H-[1,3]oxazin-2-yl)-N-methyl-N-(5-pyridin-3-yl-thiazol-2-yl)-acrylamide] | – | 6.25 µM | 1.7 µM | 3.125 µM | 12.8 µM | 2.2 µM | 3.9 µM | 18.8 µM | 6.8 µM | 5.2 µM | increase in necrotic cells was already apparent | caused numbers of live cells to decrease and numbers of necrotic cells to increase in a concentration- and time-dependent fashion
